Measurements taken from US9951063B2, “8-(piperazin-1-yl)-1,2,3,4-tetrahydro-isoquinoline derivatives” (IDORSIA PHARMACEUTICALS LTD, priority 2014, dated 2018).

Each compound was assayed against human CXCR3A (Homo sapiens (Human), UniProt P49682) (assay: FLIPR assay (inhibition of CXCL10-induced calcium signal)). Details: engineered CHO-K1 cells expressing human CXCR3A coupled to Galpha(16); Fluo-4-AM; CXCL10 agonist 20 nM; mean values where determined several times.
Type: cell-based
How it was run: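 CHO-K1 cells expressing human CXCR3A coupled to Gα16 were loaded with Fluo-4-AM for 1 h in HBSS/20 mM Hepes pH 7.4 with probenecid. Compound was added, then CXCL10 (20 nM as dispensed). Baseline-subtracted peak fluorescence gave inhibition curves and IC50, averaged over repeats.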

Chain of human CXCR3A (P49682 whole entry): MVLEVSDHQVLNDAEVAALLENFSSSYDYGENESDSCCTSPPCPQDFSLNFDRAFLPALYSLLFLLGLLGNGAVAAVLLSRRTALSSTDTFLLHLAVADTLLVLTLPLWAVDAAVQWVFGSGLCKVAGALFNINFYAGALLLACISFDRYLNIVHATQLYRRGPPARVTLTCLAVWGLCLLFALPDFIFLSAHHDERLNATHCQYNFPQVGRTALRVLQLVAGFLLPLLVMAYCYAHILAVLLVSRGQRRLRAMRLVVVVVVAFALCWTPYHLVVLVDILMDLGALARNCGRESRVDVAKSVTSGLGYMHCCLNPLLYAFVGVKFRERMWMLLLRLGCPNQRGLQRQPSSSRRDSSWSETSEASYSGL

SMILES | IC50 [µM]
C[C@@H]1CN(c2cccc3c2CN(C(=O)[C@@H]2CCCc4ccccc42)CC3)CCN1C(=O)Cn1cnc2cccnc21 [Example 71, 2-Imidazo[4,5-b]pyridin-3-yl-1-{(R)-2-methyl-4-[2-((R)-1,2,3,4-tetrahydro-naphthalene-1-carbonyl)-1,2,3,4-tetrahydro-isoquinolin-8-yl]-piperazin-1-yl}-ethanone] | 0.0802
C[C@@H]1CN(c2cccc3c2CN(C(=O)c2ccccc2)CC3)CCN1C(=O)Cn1cnc2cccnc21 [Example 72, 1-[(R)-4-(2-Benzoyl-1,2,3,4-tetrahydro-isoquinolin-8-yl)-2-methyl-piperazin-1-yl]-2-imidazo[4,5-b]pyridin-3-yl-ethanone] | 0.0922
Cc1ccc(C(=O)N2CCc3cccc(N4CCN(C(=O)Cn5cnc6cccnc65)[C@H](C)C4)c3C2)cc1 [Example 73, 2-Imidazo[4,5-b]pyridin-3-yl-1-{(R)-2-methyl-4-[2-(4-methyl-benzoyl)-1,2,3,4-tetrahydro-isoquinolin-8-yl]-piperazin-1-yl}-ethanone] | 0.111
C[C@@H]1CN(c2cccc3c2CN(C(=O)c2ccc(Cl)cc2)CC3)CCN1C(=O)Cn1cnc2cccnc21 [Example 74, 1-{(R)-4-[2-(4-Chloro-benzoyl)-1,2,3,4-tetrahydro-isoquinolin-8-yl]-2-methyl-piperazin-1-yl}-2-imidazo[4,5-b]pyridin-3-yl-ethanone] | 0.0466
C[C@@H]1CN(c2cccc3c2CN(C(=O)c2ccc(Cl)c(Cl)c2)CC3)CCN1C(=O)Cn1cnc2cccnc21 [Example 75, 1-{(R)-4-[2-(3,4-Dichloro-benzoyl)-1,2,3,4-tetrahydro-isoquinolin-8-yl]-2-methyl-piperazin-1-yl}-2-imidazo[4,5-b]pyridin-3-yl-ethanone] | 0.017
C[C@@H]1CN(c2cccc3c2CN(C(=O)c2cccc(N(C)C)c2)CC3)CCN1C(=O)Cn1cnc2cccnc21 [Example 76, 1-{(R)-4-[2-(3-Dimethylamino-benzoyl)-1,2,3,4-tetrahydro-isoquinolin-8-yl]-2-methyl-piperazin-1-yl}-2-imidazo[4,5-b]pyridin-3-yl-ethanone] | 0.0824
C[C@@H]1CN(c2cccc3c2CN(C(=O)c2ccc(C(F)(F)F)cc2)CC3)CCN1C(=O)Cn1cnc2cccnc21 [Example 77, 2-Imidazo[4,5-b]pyridin-3-yl-1-{(R)-2-methyl-4-[2-(4-trifluoromethyl-benzoyl)-1,2,3,4-tetrahydro-isoquinolin-8-yl]-piperazin-1-yl}-ethanone] | 0.0923
C[C@@H]1CN(c2cccc3c2CN(C(=O)Cc2ccccc2)CC3)CCN1C(=O)Cn1cnc2cccnc21 [Example 78, 2-Imidazo[4,5-b]pyridin-3-yl-1-[(R)-2-methyl-4-(2-phenylacetyl-1,2,3,4-tetrahydro-isoquinolin-8-yl)-piperazin-1-yl]-ethanone] | 0.216
C[C@@H]1CN(c2cccc3c2CN(C(=O)[C@H](C)c2ccccc2)CC3)CCN1C(=O)Cn1cnc2cccnc21 [Example 79, (R)-1-{8-[(R)-4-(2-Imidazo[4,5-b]pyridin-3-yl-acetyl)-3-methyl-piperazin-1-yl]-3,4-dihydro-1H-isoquinolin-2-yl}-2-phenyl-propan-1-one] | 0.57
C[C@@H]1CN(c2cccc3c2CN(C(=O)C2(c4ccccc4)CC2)CC3)CCN1C(=O)Cn1cnc2cccnc21 [Example 80, 2-Imidazo[4,5-b]pyridin-3-yl-1-{(R)-2-methyl-4-[2-(1-phenyl-cyclopropanecarbonyl)-1,2,3,4-tetrahydro-isoquinolin-8-yl]-piperazin-1-yl}-ethanone] | 0.199
C[C@@H]1CN(c2cccc3c2CN(C(=O)COc2ccccc2)CC3)CCN1C(=O)Cn1cnc2cccnc21 [Example 81, 2-Imidazo[4,5-b]pyridin-3-yl-1-{(R)-2-methyl-4-[2-(2-phenoxy-acetyl)-1,2,3,4-tetrahydro-isoquinolin-8-yl]-piperazin-1-yl}-ethanone] | 0.0651
C[C@@H]1CN(c2cccc3c2CN(C(=O)CCc2ccc(Cl)cc2)CC3)CCN1C(=O)Cn1cnc2cccnc21 [Example 82, 3-(4-Chloro-phenyl)-1-{8-[(R)-4-(2-imidazo[4,5-b]pyridin-3-yl-acetyl)-3-methyl-piperazin-1-yl]-3,4-dihydro-1H-isoquinolin-2-yl}-propan-1-one] | 0.0881
C[C@@H]1CN(c2cccc3c2CN(C(=O)CCc2ccccc2)CC3)CCN1C(=O)Cn1cnc2cccnc21 [Example 83, 1-{8-[(R)-4-(2-Imidazo[4,5-b]pyridin-3-yl-acetyl)-3-methyl-piperazin-1-yl]-3,4-dihydro-1H-isoquinolin-2-yl}-3-phenyl-propan-1-one] | 0.45
C[C@@H]1CN(c2cccc3c2CN(C(=O)CCc2ccc(Cl)c(Cl)c2)CC3)CCN1C(=O)Cn1cnc2cccnc21 [Example 84, 3-(3,4-Dichloro-phenyl)-1-{8-[(R)-4-(2-imidazo[4,5-b]pyridin-3-yl-acetyl)-3-methyl-piperazin-1-yl]-3,4-dihydro-1H-isoquinolin-2-yl}-propan-1-one] | 0.0997
C[C@@H]1CN(c2cccc3c2CN(C(=O)c2ccc4ncccc4c2)CC3)CCN1C(=O)Cn1cnc2cccnc21 [Example 85, 2-Imidazo[4,5-b]pyridin-3-yl-1-{(R)-2-methyl-4-[2-(quinoline-6-carbonyl)-1,2,3,4-tetrahydro-isoquinolin-8-yl]-piperazin-1-yl}-ethanone] | 0.866
C[C@@H]1CN(c2cccc3c2CN(C(=O)Cn2cnc4ccccc42)CC3)CCN1C(=O)Cn1cnc2cccnc21 [Example 86, 1-{(R)-4-[2-(2-Benzoimidazol-1-yl-acetyl)-1,2,3,4-tetrahydro-isoquinolin-8-yl]-2-methyl-piperazin-1-yl}-2-imidazo[4,5-b]pyridin-3-yl-ethanone] | 0.686
C[C@@H]1CN(c2cccc3c2CN(C(=O)Cn2cccn2)CC3)CCN1C(=O)Cn1cnc2cccnc21 [Example 87, 2-Imidazo[4,5-b]pyridin-3-yl-1-{(R)-2-methyl-4-[2-(2-pyrazol-1-yl-acetyl)-1,2,3,4-tetrahydro-isoquinolin-8-yl]-piperazin-1-yl}-ethanone] | 5.42
C[C@@H]1CN(c2cccc3c2CN(C(=O)CN2CCOCC2)CC3)CCN1C(=O)Cn1cnc2cccnc21 [Example 88, 2-Imidazo[4,5-b]pyridin-3-yl-1-{(R)-2-methyl-4-[2-(2-morpholin-4-yl-acetyl)-1,2,3,4-tetrahydro-isoquinolin-8-yl]-piperazin-1-yl}-ethanone] | 1.91
C[C@@H]1CN(c2cccc3c2CN(C(=O)c2ccnn2C)CC3)CCN1C(=O)Cn1cnc2cccnc21 [Example 89, 2-Imidazo[4,5-b]pyridin-3-yl-1-{(R)-2-methyl-4-[2-(2-methyl-2H-pyrazole-3-carbonyl)-1,2,3,4-tetrahydro-isoquinolin-8-yl]-piperazin-1-yl}-ethanone] | 0.955
Cc1ccc(N2CCc3cccc(N4CCN(C(=O)Cn5cnc6cccnc65)[C@H](C)C4)c3C2)nc1 [Example 90, 2-Imidazo[4,5-b]pyridin-3-yl-1-{(R)-2-methyl-4-[2-(5-methyl-pyridin-2-yl)-1,2,3,4-tetrahydro-isoquinolin-8-yl]-piperazin-1-yl}-ethanone] | 0.0112
C[C@@H]1CN(c2cccc3c2CN(c2ccc(F)cn2)CC3)CCN1C(=O)Cn1cnc2cccnc21 [Example 91, 1-{(R)-4-[2-(5-Fluoro-pyridin-2-yl)-1,2,3,4-tetrahydro-isoquinolin-8-yl]-2-methyl-piperazin-1-yl}-2-imidazo[4,5-b]pyridin-3-yl-ethanone] | 0.00801
Cc1ccc(N2CCc3cccc(N4CCN(C(=O)Cn5cnc6cccnc65)[C@H](C)C4)c3C2)cn1 [Example 92, 2-Imidazo[4,5-b]pyridin-3-yl-1-{(R)-2-methyl-4-[2-(6-methyl-pyridin-3-yl)-1,2,3,4-tetrahydro-isoquinolin-8-yl]-piperazin-1-yl}-ethanone] | 0.00097
C[C@@H]1CN(c2cccc3c2CN(c2ccc(Cl)cc2)CC3)CCN1C(=O)Cn1cnc2cccnc21 [Example 93, 1-{(R)-4-[2-(4-Chloro-phenyl)-1,2,3,4-tetrahydro-isoquinolin-8-yl]-2-methyl-piperazin-1-yl}-2-imidazo[4,5-b]pyridin-3-yl-ethanone] | 0.00755
COc1ccccc1N1CCc2cccc(N3CCN(C(=O)Cn4cnc5cccnc54)[C@H](C)C3)c2C1 [Example 94, 2-Imidazo[4,5-b]pyridin-3-yl-1-{(R)-4-[2-(2-methoxy-phenyl)-1,2,3,4-tetrahydro-isoquinolin-8-yl]-2-methyl-piperazin-1-yl}-ethanone] | 0.0619
C[C@@H]1CN(c2cccc3c2CN(c2ccc(C#N)cc2)CC3)CCN1C(=O)Cn1cnc2cccnc21 [Example 95, 4-{8-[(R)-4-(2-Imidazo[4,5-b]pyridin-3-yl-acetyl)-3-methyl-piperazin-1-yl]-3,4-dihydro-1H-isoquinolin-2-yl}-benzonitrile] | 0.0078
C[C@@H]1CN(c2cccc3c2CN(c2ccc(C(F)(F)F)cc2)CC3)CCN1C(=O)Cn1cnc2cccnc21 [Example 96, 2-Imidazo[4,5-b]pyridin-3-yl-1-{(R)-2-methyl-4-[2-(4-trifluoromethyl-phenyl)-1,2,3,4-tetrahydro-isoquinolin-8-yl]-piperazin-1-yl}-ethanone] | 0.0255
COc1cccc(N2CCc3cccc(N4CCN(C(=O)Cn5cnc6cccnc65)[C@H](C)C4)c3C2)c1 [Example 97, 2-Imidazo[4,5-b]pyridin-3-yl-1-{(R)-4-[2-(3-methoxy-phenyl)-1,2,3,4-tetrahydro-isoquinolin-8-yl]-2-methyl-piperazin-1-yl}-ethanone] | 0.00438
C[C@@H]1CN(c2cccc3c2CN(c2ccc(OC(F)(F)F)cc2)CC3)CCN1C(=O)Cn1cnc2cccnc21 [Example 98, 2-Imidazo[4,5-b]pyridin-3-yl-1-{(R)-2-methyl-4-[2-(4-trifluoromethoxy-phenyl)-1,2,3,4-tetrahydro-isoquinolin-8-yl]-piperazin-1-yl}-ethanone] | 0.0116
